Experimental data as given in PMC4038586, “Venus Kinase Receptors Control Reproduction in the Platyhelminth Parasite Schistosoma mansoni” (PLoS Pathogens, 2014).

Key:
Assay type in all cases: cell-based
[1] = molecular target: T1, SmVKR1 (Schistosoma mansoni, UniProt Q8WSM2); assay: GVBD assay in receptor-expressing Xenopus oocytes; conditions: agonist
T1 construct: full-length, pcDNA3.1-V5/His (V5 or Myc tag), cRNA-injected Xenopus laevis oocytes; about 150 kDa; active as homodimer

[2] = molecular target: T1, SmVKR1; assay: GVBD competition assay in receptor-expressing Xenopus oocytes; conditions: competitive antagonist; 10-fold excess over L-Arg; inactive as agonist
[3] = molecular target: T2, SmVKR2 (Schistosoma mansoni, UniProt D5JEH1); assay: GVBD assay in receptor-expressing Xenopus oocytes; receptor autophosphorylation by Western blot; conditions: agonist; ND96 medium without Ca2+; VFT domain
T2 construct: full-length, pcDNA3.1-V5/His (V5 or Myc tag), cRNA-injected Xenopus laevis oocytes; about 170 kDa; active as homodimer
T2 sequence (D5JEH1 21-1641): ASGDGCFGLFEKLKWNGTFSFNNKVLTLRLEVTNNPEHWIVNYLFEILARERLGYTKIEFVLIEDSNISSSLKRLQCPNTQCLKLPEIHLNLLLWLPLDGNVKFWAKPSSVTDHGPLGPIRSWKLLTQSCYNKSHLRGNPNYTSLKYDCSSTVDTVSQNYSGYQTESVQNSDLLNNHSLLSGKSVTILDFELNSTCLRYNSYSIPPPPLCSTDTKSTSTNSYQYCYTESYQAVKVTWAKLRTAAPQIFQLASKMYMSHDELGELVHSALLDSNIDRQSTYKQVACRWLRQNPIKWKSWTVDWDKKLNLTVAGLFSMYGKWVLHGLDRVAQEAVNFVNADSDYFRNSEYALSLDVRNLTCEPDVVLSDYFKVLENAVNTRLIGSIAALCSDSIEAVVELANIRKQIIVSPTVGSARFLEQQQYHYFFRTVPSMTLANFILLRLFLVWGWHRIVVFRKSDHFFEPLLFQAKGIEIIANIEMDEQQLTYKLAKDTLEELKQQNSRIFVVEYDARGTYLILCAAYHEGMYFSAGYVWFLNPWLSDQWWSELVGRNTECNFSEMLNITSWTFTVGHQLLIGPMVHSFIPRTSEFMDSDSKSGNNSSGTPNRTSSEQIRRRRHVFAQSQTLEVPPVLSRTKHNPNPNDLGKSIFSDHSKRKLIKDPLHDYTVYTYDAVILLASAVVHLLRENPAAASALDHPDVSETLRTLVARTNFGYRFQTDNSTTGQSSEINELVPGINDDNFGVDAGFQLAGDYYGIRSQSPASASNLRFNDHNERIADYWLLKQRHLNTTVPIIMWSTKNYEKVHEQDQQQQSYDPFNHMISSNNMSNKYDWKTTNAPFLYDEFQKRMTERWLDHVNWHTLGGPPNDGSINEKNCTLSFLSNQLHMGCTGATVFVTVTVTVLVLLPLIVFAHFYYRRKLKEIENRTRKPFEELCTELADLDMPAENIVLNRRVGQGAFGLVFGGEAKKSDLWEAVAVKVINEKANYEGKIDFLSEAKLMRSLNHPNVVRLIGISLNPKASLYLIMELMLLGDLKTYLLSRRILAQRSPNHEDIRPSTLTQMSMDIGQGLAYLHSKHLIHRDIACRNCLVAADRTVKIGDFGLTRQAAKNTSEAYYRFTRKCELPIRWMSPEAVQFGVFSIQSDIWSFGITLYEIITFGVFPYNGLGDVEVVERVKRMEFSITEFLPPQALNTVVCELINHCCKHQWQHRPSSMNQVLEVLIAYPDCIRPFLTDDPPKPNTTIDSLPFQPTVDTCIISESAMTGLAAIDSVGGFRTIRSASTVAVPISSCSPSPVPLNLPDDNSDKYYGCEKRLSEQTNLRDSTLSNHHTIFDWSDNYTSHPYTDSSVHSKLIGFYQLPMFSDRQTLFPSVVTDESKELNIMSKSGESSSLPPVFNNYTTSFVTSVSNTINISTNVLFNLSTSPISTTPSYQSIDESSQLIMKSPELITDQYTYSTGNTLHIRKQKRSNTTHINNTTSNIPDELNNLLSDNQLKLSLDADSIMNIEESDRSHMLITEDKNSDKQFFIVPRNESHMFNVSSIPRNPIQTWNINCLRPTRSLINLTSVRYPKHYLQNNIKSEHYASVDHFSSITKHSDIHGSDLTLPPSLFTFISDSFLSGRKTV

[4] = molecular target: T1, SmVKR1; assay: as above; conditions: agonist; ND96 medium, 19 °C, 15 h; VFT domain; activation independent of Ca2+

T1 sequence (Q8WSM2 24-1559): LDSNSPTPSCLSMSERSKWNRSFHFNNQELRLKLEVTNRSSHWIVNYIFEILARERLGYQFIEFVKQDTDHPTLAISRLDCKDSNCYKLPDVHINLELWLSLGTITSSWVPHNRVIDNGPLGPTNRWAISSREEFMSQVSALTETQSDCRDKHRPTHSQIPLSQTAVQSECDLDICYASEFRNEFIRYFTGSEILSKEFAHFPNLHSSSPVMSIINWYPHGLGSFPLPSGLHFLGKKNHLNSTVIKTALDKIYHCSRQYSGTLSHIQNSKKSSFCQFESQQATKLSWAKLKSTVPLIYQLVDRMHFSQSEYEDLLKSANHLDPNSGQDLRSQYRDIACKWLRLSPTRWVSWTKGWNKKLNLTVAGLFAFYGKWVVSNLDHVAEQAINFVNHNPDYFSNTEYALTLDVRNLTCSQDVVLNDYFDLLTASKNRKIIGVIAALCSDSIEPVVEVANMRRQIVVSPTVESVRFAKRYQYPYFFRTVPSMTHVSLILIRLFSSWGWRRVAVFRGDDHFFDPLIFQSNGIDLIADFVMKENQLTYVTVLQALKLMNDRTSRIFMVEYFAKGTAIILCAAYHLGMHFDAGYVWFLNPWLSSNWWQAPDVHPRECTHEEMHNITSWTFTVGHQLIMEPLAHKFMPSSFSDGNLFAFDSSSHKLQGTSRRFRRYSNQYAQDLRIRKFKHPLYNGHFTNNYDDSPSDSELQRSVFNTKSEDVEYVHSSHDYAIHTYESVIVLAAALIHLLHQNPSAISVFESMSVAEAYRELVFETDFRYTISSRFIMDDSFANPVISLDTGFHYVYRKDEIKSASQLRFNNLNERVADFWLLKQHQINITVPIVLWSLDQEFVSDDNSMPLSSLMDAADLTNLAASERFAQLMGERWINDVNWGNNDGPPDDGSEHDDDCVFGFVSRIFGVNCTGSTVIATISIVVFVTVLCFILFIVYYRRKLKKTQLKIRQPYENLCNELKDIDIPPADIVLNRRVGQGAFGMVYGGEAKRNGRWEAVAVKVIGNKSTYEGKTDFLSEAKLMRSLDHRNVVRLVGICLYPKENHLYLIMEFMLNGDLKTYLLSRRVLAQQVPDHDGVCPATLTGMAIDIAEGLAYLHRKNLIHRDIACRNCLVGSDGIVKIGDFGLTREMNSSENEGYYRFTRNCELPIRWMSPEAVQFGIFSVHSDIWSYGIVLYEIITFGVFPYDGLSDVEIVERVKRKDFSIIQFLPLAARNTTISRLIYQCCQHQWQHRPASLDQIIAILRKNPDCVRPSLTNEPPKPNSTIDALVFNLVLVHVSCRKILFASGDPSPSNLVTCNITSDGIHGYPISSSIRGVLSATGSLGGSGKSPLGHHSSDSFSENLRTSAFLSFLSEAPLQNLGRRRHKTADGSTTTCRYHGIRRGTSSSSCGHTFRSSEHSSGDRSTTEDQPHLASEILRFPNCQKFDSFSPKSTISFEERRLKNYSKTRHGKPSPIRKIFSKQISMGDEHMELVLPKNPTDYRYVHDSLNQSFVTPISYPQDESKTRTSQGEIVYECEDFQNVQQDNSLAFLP

Row | Compound | GVBD at 1 mM [1] | GVBD competition assay in receptor-expressing Xenopus oocytes [2] | also measured
1 | C[C@H](N)C(=O)O [Ala] | (Arg, Ser, Gly, Ala, Cys, Thr and Glu) had the potential to activate SmVKR1 | – | –
2 | N=C(N)NCCCCN [agmatine] | – | compete and to block totally the inducing effect of L-Arg | –
3 | NCCC[C@H](N)C(=O)O [ornithine] | – | compete and to block totally the inducing effect of L-Arg | –
4 | NCC(=O)O [Gly] | (Arg, Ser, Gly, Ala, Cys, Thr and Glu) had the potential to activate SmVKR1 | – | –
5 | N=C(N)NCCC[C@@H](N)C(=O)O [D-Arg] | – | compete and to block totally the inducing effect of L-Arg | –
6 | CN(CC(=O)O)C(=N)N [creatine] | – | compete and to block totally the inducing effect of L-Arg | –
7 | C[C@@H](O)[C@H](N)C(=O)O [Thr] | (Arg, Ser, Gly, Ala, Cys, Thr and Glu) had the potential to activate SmVKR1 | – | –
8 | N[C@@H](CO)C(=O)O [Ser] | (Arg, Ser, Gly, Ala, Cys, Thr and Glu) had the potential to activate SmVKR1 | – | –
9 | N[C@@H](CS)C(=O)O [Cys] | (Arg, Ser, Gly, Ala, Cys, Thr and Glu) had the potential to activate SmVKR1 | – | –
10 | N=C(N)NOCC[C@H](N)C(=O)O [Canavanine] | – | compete and to block totally the inducing effect of L-Arg | –
11 | N[C@@H](CCC(=O)O)C(=O)O [Glu] | (Arg, Ser, Gly, Ala, Cys, Thr and Glu) had the potential to activate SmVKR1 | – | –
12 | N=C(N)NCCC[C@H](N)C(=O)O [L-Arg] | – | – | minimal concentration [3]: 1 mM; % GVBD at 1 μM [4]: 80%
